Earlier results as cited in patent US20040197891A1, “Removal of plasmin(ogen) from protein solutions” (priority 2001, published 2004).
Read-outs that look alike come from different tables or passages of the source.

Columns and labels:
[1] = tested on: fibrinolytic activity of plasma
[2] = plasma that has been heparinized oral blood

Structure (SMILES)	antifibrinolytic activity compared with EACA (plasmin(ogen))	inhibition (anti-fibrinolytic activity) [1, 2] [%]	inhibition (anti-fibrinolytic activity) ([1]; urokinase-stimulated plasma) [%]	antifibrinolytic potency (plasmin(ogen))
N=C(N)c1ccc(N)cc1 [PAMBA, p-amino benzamidine]	about three			
NC[C@H]1CC[C@H](C(=O)O)CC1 [tranexamic acid]		39	91	
NCCCCCC(=O)O [ε-amino-caproic acid, ε-amino caproic acid]		65	98	
NCCCC[C@H](N)C(=O)O [lysine]				very low
